Calls of active or inactive are those of the source. No cut-off for these calls is given here.
How the values were obtained:
[1] = Hemolytic activity in red blood cells at 100 uM; format: ADME, cell-based, Erythrocyte; details: read-out: Activity
Bacillus subtilis = assay: Antibacterial activity against Bacillus subtilis […] by microdilution method; format: functional, organism-based
Acinetobacter baumannii = assay: Antibacterial activity against Acinetobacter baumannii ATCC BAA747 by microdilution method; format: functional, organism-based
[2] = Hemolytic activity in red blood cells; format: ADME, cell-based, Erythrocyte; details: read-out: HD50 (the source's name)
Staphylococcus aureus = assay: Antibacterial activity against multi-drug resistant Staphylococcus aureus ATCC BAA44 by microdilution method; format: functional, organism-based
Escherichia coli = assay: Antibacterial activity against ampicillin and streptomycin-resistant Escherichia coli D31 by microdilution method; format: functional, organism-based
Bacillus anthracis = assay: Antibacterial activity against Bacillus anthracis by microdilution method; format: functional, organism-based
[3] = Effect on disruption of membrane integrity using […]-2-oleoyl-sn-glycero-3-[phospho-rac-(1-glycerol)] lipid vesicle at 90 uM by calcein dye leakage assay; format: functional
[4] = Effect on disruption of membrane integrity using […]-2-oleoyl-sn-glycero-3-[phospho-rac-(1-glycerol)] lipid vesicle at 50 uM by calcein dye leakage assay; format: functional
[5] = Effect on disruption of membrane integrity using […]-2-oleoyl-sn-glycero-3-[phospho-rac-(1-glycerol)] lipid vesicle at 70 uM by calcein dye leakage assay; format: functional

SMILES: CCCCN(CCCC)CCCNc1nc(NC2CCCCC2)nc(NC23CC4CC(CC(C4)C2)C3)n1
- hemolysis at 100 µM [1]: < 10%

SMILES: CCCCN(CCCC)CCCNc1nc(NCCCN(CCCC)CCCC)nc(NC23CC4CC(CC(C4)C2)C3)n1
- hemolysis at 100 µM [1]: < 10%

SMILES: CCN(CC)CCCNc1nc(NCCc2ccc(OC)cc2)nc(NC23CC4CC(CC(C4)C2)C3)n1
- hemolysis at 100 µM [1]: < 10%

SMILES: CCCCN(CCCC)CCCNc1nc(NCCCN(CC)CC)nc(NC23CC4CC(CC(C4)C2)C3)n1
- hemolysis at 100 µM [1]: < 10%

SMILES: CCCCN(CCCC)CCCNc1nc(NC23CC4CC(CC(C4)C2)C3)nc(N(CCC)CC2CC2)n1
- IC50 (Bacillus subtilis): 5 µM

SMILES: CN(C)CCNc1nc(NC2CCCCCC2)nc(NC23CC4CC(CC(C4)C2)C3)n1
- IC50 (Bacillus subtilis): 7 µM

SMILES: CCCCN(CCCC)CCCNc1nc(NC2CCCC2)nc(NC23CC4CC(CC(C4)C2)C3)n1
- IC50 (Bacillus subtilis): 4.6 µM

SMILES: CCN(CC)CCNc1nc(NC2CCCCCC2)nc(NC23CC4CC(CC(C4)C2)C3)n1
- IC50 (Bacillus subtilis): 5.6 µM

SMILES: CCCCN(CCCC)CCCNc1nc(NC2CCC2)nc(NC23CC4CC(CC(C4)C2)C3)n1
- IC50 (Bacillus subtilis): 7.9 µM

SMILES: CCN(CC)CCCNc1nc(NCc2ccc3c(c2)OCO3)nc(NC23CC4CC(CC(C4)C2)C3)n1
- IC50 (Bacillus subtilis): 3.5 µM

SMILES: CCCCN(CCCC)CCCNc1nc(NC2CCCCCCC2)nc(NC23CC4CC(CC(C4)C2)C3)n1
- IC50 (Acinetobacter baumannii): 84 µM
- HC50 [2]: > 3.5 mM
- IC50 (Staphylococcus aureus): 70 µM
- IC50 (Bacillus subtilis): 2 µM
- IC50 (Escherichia coli): 550 µM
- IC50 (Bacillus anthracis): 86 µM

SMILES: CCN(CC)CCCNc1nc(NC2CCCCCC2)nc(NC23CC4CC(CC(C4)C2)C3)n1
- hemolysis at 100 µM [1]: < 10%

SMILES: C[N+](C)(C)CCNc1nc(NC2CCCCCC2)nc(NC23CC4CC(CC(C4)C2)C3)n1
- IC50 (Bacillus subtilis): 5.3 µM

SMILES: CCCCN(CCCC)CCCNc1nc(NC23CC4CC(CC(C4)C2)C3)nc(N(CCCC)CCCC)n1
- IC50 (Bacillus subtilis): 4.4 µM

SMILES: CCCCN(CCCC)CCCNc1nc(NCC2CCCCC2)nc(NC23CC4CC(CC(C4)C2)C3)n1
- IC50 (Bacillus subtilis): 5.5 µM

SMILES: CCN(CC)CCCNc1nc(NCCCc2ccccc2)nc(NC23CC4CC(CC(C4)C2)C3)n1
- IC50 (Bacillus subtilis): 3.7 µM

SMILES: CN(C)c1nc(NC2CCCCCC2)nc(NC23CC4CC(CC(C4)C2)C3)n1
- Activity [3]: inactive
- IC50 (Bacillus subtilis): > 40 µM

SMILES: CCN(CC)CCCNc1nc(NCCc2ccccc2)nc(NC23CC4CC(CC(C4)C2)C3)n1
- IC50 (Acinetobacter baumannii): 22 µM
- HC50 [2]: > 3.5 mM
- IC50 (Staphylococcus aureus): 17 µM
- Activity [4]: 100%
- IC50 (Bacillus subtilis): 2.7 µM
- IC50 (Escherichia coli): 200 µM
- IC50 (Bacillus anthracis): 21 µM

SMILES: CC1(C)S[C@@H]2[C@H](NC(=O)[C@H](N)c3ccccc3)C(=O)N2[C@H]1C(=O)O
- Activity [5]: inactive

SMILES: CCCCN(CCCC)CCCNc1nc(NC2CC2)nc(NC23CC4CC(CC(C4)C2)C3)n1
- IC50 (Bacillus subtilis): 16.4 µM

SMILES: CCCCN(CCCC)CCCNc1nc(NC2CCCCCCCCCCC2)nc(NC23CC4CC(CC(C4)C2)C3)n1
- IC50 (Bacillus subtilis): 15.9 µM

SMILES: NCCNc1nc(NC2CCCCCC2)nc(NC23CC4CC(CC(C4)C2)C3)n1
- IC50 (Bacillus subtilis): 5.9 µM

SMILES: CCCCN(CCCC)CCCNc1nc(NC2CC3CCC2C3)nc(NC23CC4CC(CC(C4)C2)C3)n1 (centres undefined)
- IC50 (Bacillus subtilis): 7.6 µM

SMILES: CCCCN(CCCC)CCCNc1nc(NC2CCCCCC2)nc(NC23CC4CC(CC(C4)C2)C3)n1
- IC50 (Acinetobacter baumannii): 53 µM
- HC50 [2]: > 3.5 mM
- IC50 (Staphylococcus aureus): 68 µM
- hemolysis at 100 µM [1]: < 10%
- IC50 (Bacillus subtilis): 2.5 µM
- IC50 (Escherichia coli): 620 µM
- IC50 (Bacillus anthracis): 41 µM

SMILES: CN(C)CCCNc1nc(NC2CCCCCC2)nc(NC23CC4CC(CC(C4)C2)C3)n1
- IC50 (Bacillus subtilis): 5.7 µM

SMILES: CCN(CC)CCCNc1nc(NCc2ccccc2)nc(NC23CC4CC(CC(C4)C2)C3)n1
- IC50 (Bacillus subtilis): 10.6 µM

SMILES: CN1CCCC1CCNc1nc(NC2CCCCCC2)nc(NC23CC4CC(CC(C4)C2)C3)n1 (centres undefined)
- IC50 (Bacillus subtilis): 5.9 µM

SMILES: CCCCN(CCCC)CCCNc1nc(NC23CC4CC(CC(C4)C2)C3)nc(NC23CC4CC(CC(C4)C2)C3)n1
- IC50 (Bacillus subtilis): 39 µM

SMILES: NCCCNc1nc(NC2CCCCCC2)nc(NC23CC4CC(CC(C4)C2)C3)n1
- IC50 (Bacillus subtilis): 4.7 µM

SMILES: CCCCN(CCCC)CCCNc1nc(NCCc2ccc(OC)cc2)nc(NC23CC4CC(CC(C4)C2)C3)n1
- hemolysis at 100 µM [1]: < 10%

SMILES: CCCCN(CCCC)CCCNc1nc(NCCCN2CCCC(C)C2)nc(NC23CC4CC(CC(C4)C2)C3)n1 (centres undefined)
- hemolysis at 100 µM [1]: < 10%

From ChEMBL document CHEMBL1141486, “Synthesis and biological evaluation of novel 1,3,5-triazine derivatives as antimicrobial agents” (Bioorg Med Chem Lett, 2008)
